Test results as given in patent publication US20250268878A1, “FERROPORTIN-INHIBITORS FOR THE USE IN THE TREATMENT OF MYELODYSPLASTIC SYNDROMES (MDS)” (Vifor (International) AG, priority 2021, published 2025).
Entries after “also recorded” stand apart in the source; their conditions may differ.

Experiments:
transfused guinea pigs = settings: cited from earlier work
NUP98-HOXD13 MDS mice [1] = experiment: NUP98-HOXD13 MDS mouse model, rescuing effect (treatment from 5 months of age); assay type: in vivo; settings: for Leukemia development / Anemia after 5 months of treatment: additional results; for Leukemia development: WBC; for Anemia after 5 months of treatment: 10 months of age
Protocol: (§1) • The ferroportin inhibitor compound Fpn127 was tested in NUP98-HOXD13 MDS mice. Fpn127was administered in drinking water containing 1% glucose at the concentration of 0.5 mg/ml.
• To study the rescuing effect of the ferroportin inhibitors according to the invention on the established iron overload and related toxicities in MDS, overall 8 5-month-old MDS mice were treated with the Example Compound Fpn127 and compared to 8 age-and sex-matched MDS untreated mice and wild-type control (1 experiment). Mice were treated from 5 months of age onwards. During the treatment period 3 untreated and 3 treated MDS mice were lost. […] Other 2 mice died without the opportunity to monitor parameters. No molecular analysis of 5 month-old treated mice was obtained as this cohort was kept for further observing and monitoring. To better follow individual blood parameter modulation two cohorts of mice whose treatment has been started at 3 and 5 months of age respectively, are analyzed longitudinally once a month along the treatment.
• To study the rescuing effect of the compound on the established iron overload and related toxicities in MDS, 5-month-old MDS mice were treated and compared to age-and sex-matched untreated MDS mice and wild-type controls. Mice were treated from 5 months of age onwards. […] The anemia of MDS mice tends to worsen from 5 months of age on.

[2] = tested on: mouse model of β-thalassemia; settings: cited from earlier work
NUP98-HOXD13 MDS mice [3] = experiment: NUP98-HOXD13 MDS mouse model, rescuing effect (treatment from 5 months of age); assay type: in vivo; settings: over a total of 10
NUP98-HOXD13 MDS mice [4] = experiment: NUP98-HOXD13 MDS mouse model, preventive effect (treatment from 3 months of age); assay type: in vivo; settings: for Immature Lin+ cKit+ cells in bone marrow: 3 months-long treatment; for Erythropoiesis / erythroid maturation in bone marrow and spleen: CD71 and CD44 loss on Ter119+ cells; for ROS formation in Ter119+ erythroid precursors: flow cytometry; for NTBI levels: serum, 0.5 mg/ml in drinking water
Protocol: as §1
• To study the protective effect of ferroportin inhibitors according to the invention on the progressive development of iron overload and related toxicities, overall 15 3-month-old MDS mice were treated with the Example Compound Fpn127 and compared to age-and sex-matched 15 untreated MDS mice and wild-type control (total of 3 repeated experiments). Mice were treated for 3 months-from 3 to 6 months of age. During the treatment period 2 untreated and 1 treated MDS mice were lost. • MDS mice of 3 months of age already show a certain degree of anemia, which supports to use the ferroportin inhibitors in the treatment starting from 3 months to improve erythropoiesis and anemia (FIG. 1). • About 60-70% of MDS mice show a mild to moderate anemia at 3 months of age. According to Hb levels, 3 month-old MDS mice can be divided into 3 groups presenting very mild, mild and moderate anemia (no/very mild anemia: Hb>13 g/dl; mild anemia: 10 g/dl<Hb<13 g/dl; moderate anemia: 8 g/dl<Hb<10 g/dl) (FIG. 2). Rarely MDS mice show severe anemia at 3 months age (severe anemia: Hb<8 g/dl). This reflects the situation of MDS patients whose 70-80% present anemia at diagnosis with different degree of severity. • In MDS mice treated for 3 months with Fpn127 from 3 to 6 months of age, the following parameters were monitored: • Serum iron levels and NTBI; • Liver iron accumulation; • Anemia and blood parameters; • Erythropoiesis—including RBC maturation, erythroid precursor apoptosis and ROS; • Hematopoietic stem cells—including apoptosis, ROS and DNA damage; • Bone marrow macrophages and myeloid-derived suppressor cells (not shown). • The FIGS. 3 to 15 show the results obtained as average of 3 independent experiments.
• Similar as in the MDS mouse model described above, the kinetic effects of VIT-2763, administered into the drinking water (0.5 mg/ml) was investigated in NUP98-HOXD13 model of MDS.
• To study the protective effect of the compound on the progressive development of iron overload and related toxicities, 3-month-old MDS mice were treated and compared to age-and sex-matched untreated MDS mice and wild-type control. Mice were treated with VIT-2763 from 3 months of age on to follow longitudinally blood parameters and survival (FIGS. 16-19), or for 3 months-from 3 to 6 months of age, for cellular and biochemical analyses (FIGS. 20-24).

[5] = treated from 5 months of age, listed as VIT
[6] = treated from 5 months of age, listed as VIT-2763
[7] = 3 to 6 months of age, listed as VIT
[8] = 3 to 6 months of age, listed as VIT-2763
[9] = Annexin V, MDS mice, 3 to 6 months of age
[10] = MDS mice, 3 to 6 months of age, listed as Example Compound No. 127
[11] = MDS mice, 0.5 mg/ml, 3 to 6 months of age
[12] = MDS mice, 0.5 mg/ml, 3 to 6 months of age, listed as Example Compound No. 127
[13] = bone marrow, MDS mice, 3 to 6 months of age
[14] = treated from 3 months of age on, from 5 through 7 months of age

Structure (SMILES): O=C(NCc1ncccc1F)c1csc(CCNCc2nc3ccccc3[nH]2)n1 [VIT-2653]
- Hb levels following exchange transfusion (transfused guinea pigs; guinea pigs, intravenous): significantly improved
- NTBI levels following exchange transfusion (transfused guinea pigs; guinea pigs, intravenous): significantly improved
- Total iron in kidneys following transfusion (transfused guinea pigs; guinea pigs, intravenous): can be reduced
- Occurrence of changes in plasma creatinine >0.3 mg/dL (early acute kidney injury) (transfused guinea pigs; transfused guinea pigs): significantly reduced

Structure (SMILES): O=C(NCc1ncccc1F)c1coc(CCNCCc2nc3ccccc3[nH]2)n1 [Fpn127]
- Leukemia development (NUP98-HOXD13 MDS mice [1]; [5]): delayed leukemia development
- Leukemia development (NUP98-HOXD13 MDS mice [1]; [6]): delays leukemia evolution
- Anemia after 5 months of treatment (NUP98-HOXD13 MDS mice [1]; [5]): improved anemia was observed
- Anemia after 5 months of treatment (NUP98-HOXD13 MDS mice [1]; [6]): improves anemia
- Median survival improvement compared to untreated mice (NUP98-HOXD13 MDS mice [1]; older MDS mice, treated from 5 months of age): about 16 days
- Hb of treated mice still alive at 15 months of age (NUP98-HOXD13 MDS mice [1]; stable blood parameters): about 9 g/dl
- Survival (Kaplan-Meier) (NUP98-HOXD13 MDS mice [1]; treated from 5 months of age): improves MDS mice survival
- Anemia after 3 months of treatment (NUP98-HOXD13 MDS mice [1]; treated from 5 months of age, 5 to 8 months of age): failed to observe improved anemia
- Anemia in older MDS mice (NUP98-HOXD13 MDS mice [1]; treated from 5 months of age, mice at 9 and 10 months of age, subset of mice): improves anemia; also recorded: partial improvement of anemia
- Progression to leukemia / leukemia-related death (NUP98-HOXD13 MDS mice [1]; treated from 5 months of age, mice that died): reduces leukemia-related death; also recorded: no apparent progression to leukemia
- Life span reached by MDS mice benefiting from treatment (NUP98-HOXD13 MDS mice [1]; untreated all dying within 400 days): up to 600 days
- Anemia [2]: ameliorated anemia
- Liver iron loading [2]: prevents liver iron loading
- Ineffective erythropoiesis ([2]; oral): improves ineffective erythropoiesis
- Treated MDS mice still alive at 15 months of age (NUP98-HOXD13 MDS mice [3]): two
- Immature Lin+ cKit+ cells in bone marrow (NUP98-HOXD13 MDS mice [4]; [7]): reduced
- Immature Lin+ cKit+ cells in bone marrow (NUP98-HOXD13 MDS mice [4]; [8]): reduces
- Bone marrow CD11b+ myeloid cells (myeloid expansion) (NUP98-HOXD13 MDS mice [4]; [7]): reduced
- IL-1β production by bone marrow macrophages (NUP98-HOXD13 MDS mice [4]; [7]): reduced
- Macrophage number in bone marrow (NUP98-HOXD13 MDS mice [4]; [7]): improved macrophage number
- Monocytic and granulocytic myeloid-derived suppressor cells (MDSCs) in bone marrow (NUP98-HOXD13 MDS mice [4]; [7]): reduced
- TNFα production by bone marrow macrophages (NUP98-HOXD13 MDS mice [4]; [7]): reduced
- Bone marrow CD11b+ myeloid cells (myeloid expansion) (NUP98-HOXD13 MDS mice [4]; [8]): reduces myeloid expansion
- IL-1β production by bone marrow macrophages (NUP98-HOXD13 MDS mice [4]; [8]): limits
- Macrophage number in bone marrow (NUP98-HOXD13 MDS mice [4]; [8]): improves macrophage number
- Monocytic and granulocytic myeloid-derived suppressor cells (MDSCs) in bone marrow (NUP98-HOXD13 MDS mice [4]; [8]): reduces myeloid expansion
- TNFα production by bone marrow macrophages (NUP98-HOXD13 MDS mice [4]; [8]): limits
- Apoptosis in Ter119+ erythroid precursors (NUP98-HOXD13 MDS mice [4]; [9]): decreasing; also recorded: reduced
- Cell survival / apoptosis of LSK cells (NUP98-HOXD13 MDS mice [4]; [9]): lower apoptosis
- Apoptosis in Ter119+ erythroid precursors (NUP98-HOXD13 MDS mice [4]; Annexin V, MDS mice, 3 to 6 months of age, listed as Example Compound No. 127): prevent their apoptosis
- Erythropoiesis / erythroid maturation in bone marrow and spleen (NUP98-HOXD13 MDS mice [4]; MDS mice, 3 to 6 months of age): improves bone marrow erythroid maturation; also recorded: improves splenic erythroid maturation; also recorded: significantly improved
- Erythropoiesis / erythroid maturation in bone marrow and spleen (NUP98-HOXD13 MDS mice [4]; [10]): improve ineffective erythropoiesis
- Improvement of Hb levels (NUP98-HOXD13 MDS mice [4]; MDS mice treated from 3 months of age, after 2, 3 and 4 months of treatment): about 2 g/dl
- Anemia, longitudinal monitoring (NUP98-HOXD13 MDS mice [4]; MDS mice treated with 0.5 mg/ml from 3 months of age): improves anemia
- Serum iron levels (NUP98-HOXD13 MDS mice [4]; MDS mice, 0.5 mg/ml in drinking water for 3 months, 3 to 6 months of age): reduces; also recorded: significantly decreased
- Anemia (NUP98-HOXD13 MDS mice [4]; [11]): Improved anemia; also recorded: ameliorates anemia
- HCT (NUP98-HOXD13 MDS mice [4]; [11]): significantly improved
- Hb (NUP98-HOXD13 MDS mice [4]; [11]): significantly improved
- Kidney iron content (NUP98-HOXD13 MDS mice [4]; [11]): significantly decreased
- Liver iron content (NUP98-HOXD13 MDS mice [4]; [11]): prevents iron loading; also recorded: significantly decreased
- MCH (NUP98-HOXD13 MDS mice [4]; [11]): remain unchanged
- MCV (NUP98-HOXD13 MDS mice [4]; [11]): remain unchanged
- Platelet count (NUP98-HOXD13 MDS mice [4]; [11]): remains unchanged
- RBC (NUP98-HOXD13 MDS mice [4]; [11]): significantly improved
- Reticulocytes (NUP98-HOXD13 MDS mice [4]; [11]): trend to improvement
- Spleen iron (NUP98-HOXD13 MDS mice [4]; [11]): further elevated
- WBC count elevation / progression to leukemia (NUP98-HOXD13 MDS mice [4]; [11]): trend in reducing progression to leukemia; also recorded: only one mouse show a trend to elevated WBC count
- Anemia (NUP98-HOXD13 MDS mice [4]; [12]): ameliorate anemia
- Liver iron content (NUP98-HOXD13 MDS mice [4]; [12]): prevent
- Double strand breaks (γH2AX) in LSK cells (NUP98-HOXD13 MDS mice [4]; MDS mice, 3 to 6 months of age): reduced double strand breaks
- ROS production in LSK cells (NUP98-HOXD13 MDS mice [4]; MDS mice, 3 to 6 months of age): decreased ROS production
- Expression of CD71 on Ter119+ erythroid precursors (NUP98-HOXD13 MDS mice [4]; bone marrow and spleen, MDS mice, 3 to 6 months of age): significant reduction
- Overall status of hematopoietic LSK stem cells (NUP98-HOXD13 MDS mice [4]; [13]): improves the overall status; also recorded: overall improvement
- Pool of LSK cells (NUP98-HOXD13 MDS mice [4]; [13]): likely preserved
- ROS formation in Ter119+ erythroid precursors (NUP98-HOXD13 MDS mice [4]; MDS mice, 3 to 6 months of age): decreasing; also recorded: reduced
- ROS formation in Ter119+ erythroid precursors (NUP98-HOXD13 MDS mice [4]; [10]): limit
- Iron accumulation in LSK cells (NUP98-HOXD13 MDS mice [4]; labile iron, MDS mice, 3 to 6 months of age): reduced iron accumulation
- WBC increase in peripheral blood / leukemia evolution (NUP98-HOXD13 MDS mice [4]; longitudinal, treated from 3 months of age, listed as VIT-2763): delays leukemia evolution; also recorded: not observed or delayed
- NTBI levels (NUP98-HOXD13 MDS mice [4]; MDS mice, 3 to 6 months of age): reduces; also recorded: significantly decreased
- NTBI levels (NUP98-HOXD13 MDS mice [4]; [10]): prevent NTBI formation
- Survival (Kaplan-Meier) (NUP98-HOXD13 MDS mice [4]; treated from 3 months of age): improves MDS mice survival
- HCT, longitudinal monitoring (NUP98-HOXD13 MDS mice [4]; [14]): significantly improved
- Hb, longitudinal monitoring (NUP98-HOXD13 MDS mice [4]; [14]): significantly improved
- RBC, longitudinal monitoring (NUP98-HOXD13 MDS mice [4]; [14]): significantly improved
